The text below walks through data of US20210052874A1, “ULTRASOUND DEVICE AND THERAPEUTIC METHODS” (priority 2011, published 2021).

This series in a line: In vitro transdermal delivery of carboxyfluorescein through mouse skin in a Franz diffusion cell, with or without low frequency ultrasound (LFUS). The format is in vitro ADME. To be noted: for Delivery Efficiency (% of CF delivered) / Enhancement Ratio v. free CF, no LFUS: mouse skin. How it is done:
An in vitro study was performed to evaluate the ability of the present invention to enable transdermal delivery of substantially intact encapsulated drugs. The study involved applying low intensity, low pressure amplitude ultrasound waves to mouse skin in order to mediate transdermal delivery of liposome encapsulated carboxyfluorescein (CF), a hydrophilic dye. […] In this setup, an ultrasound applicator 10 having 4 transducers 12 arranged in a 2×2 array is supported by a custom fixture 80 and in direct communication with a Franz diffusion cell, including a donor compartment 82 filled with a liquid medium interspersed with liposome encapsulated CF and a sample mouse skin. Low frequency ultrasound waves (LFUS) having a low pressure amplitude of about 55 kPa, a low acoustic intensity of about 100 mW/cm^2 and a low frequency of about 17.9 kHz was generated by ultrasound applicator 10 and directed towards a mouse skin sample 84 positioned adjacent to donor compartment 82 for about 4 hours. The amount of liposome encapsulated CF that permeated mouse skin 84 and collected within a receptor compartment 86 surrounded by a water jacket 88 was examined and measured after about 4 hours of ultrasound application when the ultrasound source was turned off and again 8 hours after the start of the experiment. The liposomes were made from 1,2-dioleoyl-sn-glycerol-3-phosphocholine (DOPC), and the liposome encapsulated CF was prepared using the dehydration-rehydration technique described in Kirby, C. and G. Gregoriadis, “Dehydration rehydration vesicles: a simple method for high yield drug entrapment in liposome,” Nature Biotechnology, 1984, 2(11): p. 9′79-984, herein incorporated by reference. In this experiment, encapsulation efficiency of the CF was improved (about 10% to about 30% measured by titration) by minimizing the amount of rehydration buffer used, adjusting pH before rehydration to fully dissolve CF by minimizing the amount of rehydration buffer used, and by adjusting the pH to about 10 and subsequently adjusting the pH to about 7.4 before rehydration. The original encapsulation efficiency of CF was about 0.67% in 100 nm liposomes, using about 5.2 mg CF in the rehydration buffer (about 2.56 mM). […] Tests D1-D2 show the results for liposome encapsulated CF after exposure to 20 minutes of low frequency ultrasound stimulation. Tests E1-3 show the results for liposome encapsulated CF upon exposure to 4 hours of low frequency ultrasound stimulation.

As to carboxyfluorescein [Free CF], the “Delivery Efficiency (% of CF delivered)” value (4 hr simultaneous LFUS) was found to be 0.03% and the “Delivery Efficiency (% of CF delivered)” value (no LFUS) stood at 0.03%. For the same substance, the “Enhancement Ratio v. free CF, no LFUS” value came out at 0.00 (4 hr simultaneous LFUS) and 0.00 (no LFUS). Besides, the “Amount able to permeate the mouse skin” value (after 8 hours, not assisted by ultrasound) was “less than 0.005 M/M”.
